From patent EP4818168A1, “FUSED RING COMPOUND, PHARMACEUTICAL COMPOSITION THEREOF AND USE THEREOF” (priority 2023, dated 2025)
Like-named read-outs stand apart in the source and are kept apart here.

Tests used:
AURKA = target: T1, AURKA (Homo sapiens, UniProt O14965); format: cell-based
T1 construct: endogenous in cells; host or cells: Jurkat cells
T1 sequence (O14965 1-403): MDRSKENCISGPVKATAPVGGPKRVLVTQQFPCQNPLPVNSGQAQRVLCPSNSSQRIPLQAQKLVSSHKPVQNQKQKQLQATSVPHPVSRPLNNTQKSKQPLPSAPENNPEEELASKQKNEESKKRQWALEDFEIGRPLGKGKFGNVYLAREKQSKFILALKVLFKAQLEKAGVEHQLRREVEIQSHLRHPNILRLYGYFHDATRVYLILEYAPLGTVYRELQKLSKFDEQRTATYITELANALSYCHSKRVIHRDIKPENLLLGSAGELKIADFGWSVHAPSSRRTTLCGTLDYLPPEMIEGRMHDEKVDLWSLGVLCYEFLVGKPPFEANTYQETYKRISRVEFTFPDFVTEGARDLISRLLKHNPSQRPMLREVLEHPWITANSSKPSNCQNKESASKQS
Outline: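 AURKA degradation read by western blot: band signal, fluorescent or chemiluminescent, curve-fitted to derive DC50. Cells were Jurkat, plated at 1×10^6 cells/500 µL with compound, then lysed and blotted onto nitrocellulose, primary antibody overnight at 4°C.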

H82 cells = assay: cells; format: cell-based; details: Homo sapiens
Outline: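 After 6 days' compound treatment at 37 °C (final DMSO 0.1%, RPMI1640/10% FBS), viable H82 cells were quantified by ATP-dependent CellTiter-Glo luminescence. Remaining activity was calculated against DMSO and medium wells, and a sigmoidal fit gave IC50.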

[1] = 100 nM compound, Jurkat cells, 24 h, Table 2
[2] = 1 µM compound, Jurkat cells, 24 h, Table 2
[3] = NCI-H82, H82 cells, 4000 cells/well, CellTiter-Glo, read-out: IC50 in H82 Cells
[4] = NCI-H82, read-out: IC50 in H82 Cells

| SMILES | Percentage of AURKA Degradation Induced by 100 nM Compound in Jurkat Cells (AURKA; [1]) | Percentage of AURKA Degradation Induced by 1 µM Compound in Jurkat Cells (AURKA; [2]) | IC50 (H82 cells; [3]) [nM] | Percentage of AURKA Degradation Induced by 100 nM Compound in Jurkat Cells (AURKA) | Percentage of AURKA Degradation Induced by 1 µM Compound in Jurkat Cells (AURKA) | IC50 (H82 cells; [4]) [nM] |
| --- | --- | --- | --- | --- | --- | --- |
| O=C1CCN(c2ccc(N3CCN(CCC#Cc4cccc(Nc5ncc6c(n5)-c5ccc(Cl)cc5C(c5c(F)cccc5F)=NC6)c4)CC3)cc2)C(=O)N1 [Compound A97] | + (Degradation ≤ 30%) | + (Degradation ≤ 30%) | < 1000 |  |  |  |
| O=C1CCN(c2ccc(N3CCN(CC4CN(c5ccc(Nc6ncc7c(n6)-c6ccc(Cl)cc6C(c6c(F)cccc6F)=NC7)cn5)C4)CC3)nc2)C(=O)N1 [Compound A248] | +++ (Degradation > 70%) | +++ (Degradation > 70%) | < 1000 |  |  |  |
| O=C1CCN(c2ccc(N3CCC4(CC3)CC(N3CCN(C56CC(Nc7ncc8c(n7)-c7ccc(Cl)cc7C(c7c(F)cccc7F)=NC8)(C5)C6)CC3)CO4)nc2)C(=O)N1 (stereo not drawn) [Compound A361] | +++ (Degradation > 70%) | +++ (Degradation > 70%) | < 1000 |  |  |  |
| Cc1cc(N2CCC3(CC2)CC(NC(=O)c2ccc(Nc4ncc5c(n4)-c4ccc(Cl)cc4C(c4c(F)cccc4F)=NC5)cc2)C3)ncc1N1CCC(=O)NC1=O [Compound A110] | ++ (30% < Degradation ≤ 70%) | ++ (30% < Degradation ≤ 70%) | < 1000 |  |  |  |
| N#Cc1cc(N2CCN(C(=O)C3CCN(c4ccc(Nc5ncc6c(n5)-c5ccc(Cl)cc5C(c5c(F)cccc5F)=NC6)cc4)CC3)CC2)ccc1N1CCC(=O)NC1=O [Compound A304] | +++ (Degradation > 70%) | +++ (Degradation > 70%) | < 1000 |  |  |  |
| O=C1CCN(c2cccc(N3CC(CN4CCN(c5cccc(Nc6ncc7c(n6)-c6ccc(Cl)cc6C(c6c(F)cccc6F)=NC7)c5)CC4)C3)c2)C(=O)N1 [Compound A140] | +++ (Degradation > 70%) | +++ (Degradation > 70%) | < 1000 |  |  |  |
| O=C1CCN(c2ccc(N3CCC(F)(CN4CCN(C56CC(Nc7ncc8c(n7)-c7ccc(Cl)cc7C(c7c(F)cccc7F)=NC8)(C5)C6)C(=O)C4)CC3)nc2)C(=O)N1 [Compound A272] |  |  |  | +++ (key: +: Degradation ≤ 30%; ++: 30% < Degradation ≤ 70%; +++: Degradation > 70%) | +++ (key: +: Degradation ≤ 30%; ++: 30% < Degradation ≤ 70%; +++: Degradation > 70%) | < 1000 |
| O=C1CCN(c2ccc(C3CN(C4CN(C(=O)c5ccc(Nc6ncc7c(n6)-c6ccc(Cl)cc6C(c6c(F)cccc6F)=NC7)cc5)C4)C3)nc2)C(=O)N1 [Compound A120] | + (Degradation ≤ 30%) | + (Degradation ≤ 30%) |  |  |  | < 1000 |
| O=C1CCN(c2ccc(N3CCC4(CC3)C[C@@H](N3CCN(c5ccc(Nc6ncc7c(n6)-c6ccc(Cl)cc6C(c6c(F)cccc6F)=NC7)cc5)CC3)CO4)nc2)C(=O)N1 [Compound A341] | +++ (Degradation > 70%) | +++ (Degradation > 70%) |  |  |  | < 1000 |
| O=C1CCN(c2ccc(N3CCOC(C(=O)N4CCN(c5ccc(Nc6ncc7c(n6)-c6ccc(Cl)cc6C(c6nccs6)=NC7)cc5)CC4)C3)nc2)C(=O)N1 (stereo not drawn) [Compound A343] | +++ (Degradation > 70%) | +++ (Degradation > 70%) | < 1000 |  |  |  |
| CN1CCN(c2ccc(N3CCC(=O)NC3=O)cn2)CC1C(=O)N1CCN(c2ccc(Nc3ncc4c(n3)-c3ccc(Cl)cc3C(c3c(F)cccc3F)=NC4)cc2)CC1 (stereo not drawn) [Compound A309] | ++ (30% < Degradation ≤ 70%) | ++ (30% < Degradation ≤ 70%) | < 1000 |  |  |  |
| O=C1CCN(c2ccc(N3CCC(C(=O)N4CCN(c5ccc(Nc6ncc7c(n6)-c6ccc(Cl)cc6C(c6nccs6)=NC7)cc5)CC4)CC3)nc2)C(=O)N1 [Compound A320] | +++ (Degradation > 70%) | +++ (Degradation > 70%) | < 1000 |  |  |  |
| O=C1CCN(c2ccc(N3CCN(C4CCN(c5ccc(Nc6ncc7c(n6)-c6ccc(Cl)cc6C(c6c(F)cccc6F)=NC7)cc5)CC4)CC3)nc2)C(=O)N1 [Compound A185] |  |  |  | +++ (key: +: Degradation ≤ 30%; ++: 30% < Degradation ≤ 70%; +++: Degradation > 70%) | +++ (key: +: Degradation ≤ 30%; ++: 30% < Degradation ≤ 70%; +++: Degradation > 70%) | < 1000 |
| O=C1CCN(c2ccc(N3CC(C(=O)N4CCN(c5ccc(Nc6ncc7c(n6)-c6ccc(Cl)cc6C(c6c(F)cccc6F)=NC7)cc5)CC4)C3)nc2)C(=O)N1 [Compound A274] | +++ (Degradation > 70%) | +++ (Degradation > 70%) | < 1000 |  |  |  |
| O=C1CCN(c2ccc(N3CC4COCC(C3)N4C3CCN(c4ccc(Nc5ncc6c(n5)-c5ccc(Cl)cc5C(c5c(F)cccc5F)=NC6)cc4)CC3)nc2)C(=O)N1 [Compound A356] | +++ (Degradation > 70%) | +++ (Degradation > 70%) | < 1000 |  |  |  |
| O=C1CCN(c2cnc(N3CCN(CCN4Cc5cc(Nc6ncc7c(n6)-c6ccc(Cl)cc6C(c6c(F)cccc6F)=NC7)ccc5C4=O)CC3)s2)C(=O)N1 [Compound A157] | ++ (30% < Degradation ≤ 70%) | + (Degradation ≤ 30%) | < 1000 |  |  |  |
| O=C1CCN(c2cccc(N3CC(C(=O)N4CCOc5ccc(Nc6ncc7c(n6)-c6ccc(Cl)cc6C(c6c(F)cccc6F)=NC7)cc5C4)C3)c2)C(=O)N1 [Compound A235] | ++ (30% < Degradation ≤ 70%) | + (Degradation ≤ 30%) | < 1000 |  |  |  |
| O=C1CCN(c2ccc(N3CCOC(C(=O)N4CCN(c5ccc(Nc6ncc7c(n6)-c6ccc(Cl)cc6C(c6c(F)cccc6F)=NC7)cc5)CC4)C3)nc2)C(=O)N1 (stereo not drawn) [Compound A285] | +++ (Degradation > 70%) | +++ (Degradation > 70%) | < 1000 |  |  |  |
| O=C1CCN(c2ccc(N3CC4COCC(C3)N4CC3CCN(c4ccc(Nc5ncc6c(n5)-c5ccc(Cl)cc5C(c5c(F)cccc5F)=NC6)cc4)CC3)nc2)C(=O)N1 [Compound A359] | +++ (Degradation > 70%) | +++ (Degradation > 70%) | < 1000 |  |  |  |
| O=C1CCN(c2ccc(N3CCN(C4(C5CN(c6ccc(Nc7ncc8c(n7)-c7ccc(Cl)cc7C(c7c(F)cccc7F)=NC8)cc6)C5)CC4)CC3)nc2)C(=O)N1 [Compound A252] | +++ (Degradation > 70%) | +++ (Degradation > 70%) | < 1000 |  |  |  |
| O=C1CCN(c2ccc(N3CCC4(CC3)CC(N3CCC(c5ccc(Nc6ncc7c(n6)-c6ccc(Cl)cc6C(c6c(F)cccc6F)=NC7)cc5)C(F)(F)C3)CO4)nc2)C(=O)N1 (stereo not drawn) [Compound A351] | +++ (Degradation > 70%) | +++ (Degradation > 70%) | < 1000 |  |  |  |
| O=C1CCN(c2ccc(N3CCC4(CC3)CC(NC(=O)c3ccc(Nc5ncc6c(n5)-c5ccc(F)cc5C(c5c(F)cccc5F)=NC6)cc3)C4)nc2)C(=O)N1 [Compound A109] | ++ (30% < Degradation ≤ 70%) | ++ (30% < Degradation ≤ 70%) | < 1000 |  |  |  |
